According to patent publication US20140024663A1, “ATB(0,+) AMINO ACID TRANSPORTER AS A DRUG TARGET FOR TREATMENT OF ESTROGEN RECEPTOR-POSITIVE BREAST CANCER” (GEORGIA HEALTH SCIENCES UNIVERSITY RESEARCH INSTITUTE, INC., priority 2012, published 2014):

Experiments:
[1] = system: MCF7 cells; experiment: Analysis of autophagy (LC3 localization, electron microscopy, autophagosomal proteolysis, GFP-LC3); assay type: cell-based, human; details: 48 h
Procedure: FIGS. 6A to 6C. Effects of SLC6A14 blockade with α-MT in breast cancer cells. In FIG. 6A, MCF10A (a non-malignant mammary epithelial cell line), MCF7 (an ER-positive breast cancer cell line), and MB231 (an ER-negative breast cancer cell line) cells were treated with or without 2.5 mM α-MT for 24, 48, or 72 h and then used for analysis of asparagine synthetase (ASNS) and CHOP mRNA levels. In FIG. 6B, MCF7, MB231 and MCF10A cells were treated with or without 2.5 mM α-MT for 48 h and then used for immunocytochemical analysis of the constitutively expressed LC-3. In FIG. 6C, MCF7 cells were treated with (“b” and “c”) or without (“a”) α-MT (2.5 mM) for 48 h and then used for electron microscopy. Arrows indicate sequestration of cytoplasm and organelles in pre-autophagosomes and autophagosome, and the asterisk indicates condensed chromatin. N, nucleus.
FIGS. 7A and 7B. Induction of autophagy in MCF7 cells by α-MT. […] The concentrations of α-MT and 3-MA, when present, were 2.5 mM and 10 mM. The treatment time was 48 h. The extent of proteolysis was determined by the radioactivity present in the protein-free supernatant. […] In FIG. 7B, MCF7 cells were transfected with an GFP-LC3 expression plasmid, and 24 h later, the cells were treated with or without α-MT (2.5 mM) in the presence or absence of 3-MA (10 mM) for 48 h. At the end of the treatment, cells were fixed, and the percent of cells with punctate localization of the ectopically expressed GFP-LC3 was quantified. “a” represents compared to control; “b” represents compared to treatment with α-MT alone; and “c” represents compared to treatment with […]; *, p<0.001.
Analysis of autophagy. Autophagy was analyzed as described previously (Periyasamy-Thandavan et al., 2010, Autophagy; 6:19-35; and Samaddar et al., 2008, Mol Cancer Ther; 7:2977-2987) by monitoring the localization pattern of constitutively expressed LC3 as well as that of ectopically expressed GFP-LC3. In the case of the constitutively expressed LC3, cells were treated without or with α-MT, and then used for immunocytochemical analysis of LC3 localization pattern. For ectopically expressed LC3, cells were transfected with a GFP-LC3 expression plasmid. Briefly, cells were plated on a coverslip to reach ˜50% confluence and transfection of these cells was done with 1 μg of the plasmid using FuGENE transfection reagent (Roche, Nutley, N.J.). […] At the end of the treatment, cells were fixed with 4% paraformaldehyde and examined by fluorescence microscopy to count the number of cells with punctate GFP-LC3. Autophagosomal proteolysis was quantified as described previously (Periyasamy-Thandavan et al., 2010, Autophagy; 6:19-35). […]

[2] = system: MB231 cells; experiment: Cell death by propidium iodide staining and FACS cell cycle analysis; assay type: cell-based, human; details: MB231, α-MT 2.5 mM and 3-MA 10 mM, either alone or together, 48 h
Procedure: (§1) FIGS. 9A to 9D. Influence of α-MT on mTOR activity In FIG. 9A, MCF7 and MB231 cells were treated without or with α-MT (2.5 mM) for 24 h, 48 h, or 72 h, and then the cell lysates were used for western blot. Influence of α-MT with or without 3-MA on cell death. In FIG. 9B, MCF7, MB231, and MCF10A cells were treated for 48 h without or with α-MT (2.5 mM), 3-MA (10 mM), or α-MT (2.5 mM) plus 3-MA (10 mM), and then analyzed for cell death by propidium iodide (PI) staining and FACS-based cell cycle analysis. In FIG. 9C, MCF7 cells were treated for 48 h without or with α-MT (2.5 mM), 3-MA (10 mM), or α-MT (2.5 mM) plus 3-MA (10 mM), and then analyzed for apoptotic cell death by annexin V labeling. In FIG. 9D, MCF7 and MB231 cells were treated without or with 2.5 mM α-MT for 24 h, 48 h, or 72 h. Cell lysates were then used for western blot analysis of lamin A degradation product using an antibody that recognizes specifically the proteolytic cleavage product. β-Actin was used as an internal control.
(§2) Apoptosis assay. Fluorescence-activated cell sorting (FACS) was used to monitor cell death. MCF7 cells were treated with or without α-MT, 3-MA, or α-MT plus 3-MA. Control and treated cells were then fixed in 50% ethanol, treated with 0.1% sodium citrate, 1 mg/ml RNase A, and 50 μg/ml propidium iodide, and then subjected to FACS analysis (FACS Caliber, Becton Dickinson). FITC-labeled annexin V was used to differentiate apoptotic cell death from necrotic cell death.

[3] = system: MCF10A cells; experiment: as above; assay type: cell-based, human; details: α-MT 2.5 mM and 3-MA 10 mM, either alone or together, 48 h
Procedure: as §1, §2

[4] = system: MCF7 cells; experiment: Apoptotic cell death by annexin V labeling; assay type: cell-based, human; details: 48 h
Procedure: as §1, §2

[5] = biological target: T1, Human SLC6A14 (Homo sapiens, UniProt Q9UN76); experiment: SLC6A14 transport function in X. laevis oocytes (two-microelectrode voltage-clamp); assay type: cell-based; details: for Hill coefficient of Na+-activation kinetics (number of Na+ involved in the activation process): SLC6A14-mediated transport, amino acid 1 mM, Cl- constant at 100 mM, three oocytes; for inward currents on perifusion of SLC6A14-expressing oocytes: amino acid 100 M (so in the source), in the presence of NaCl
T1 construct: expressed in transfected cells; host or cells: Xenopus laevis oocytes, microinjected with human SLC6A14 cRNA
T1 sequence (Q9UN76 1-642): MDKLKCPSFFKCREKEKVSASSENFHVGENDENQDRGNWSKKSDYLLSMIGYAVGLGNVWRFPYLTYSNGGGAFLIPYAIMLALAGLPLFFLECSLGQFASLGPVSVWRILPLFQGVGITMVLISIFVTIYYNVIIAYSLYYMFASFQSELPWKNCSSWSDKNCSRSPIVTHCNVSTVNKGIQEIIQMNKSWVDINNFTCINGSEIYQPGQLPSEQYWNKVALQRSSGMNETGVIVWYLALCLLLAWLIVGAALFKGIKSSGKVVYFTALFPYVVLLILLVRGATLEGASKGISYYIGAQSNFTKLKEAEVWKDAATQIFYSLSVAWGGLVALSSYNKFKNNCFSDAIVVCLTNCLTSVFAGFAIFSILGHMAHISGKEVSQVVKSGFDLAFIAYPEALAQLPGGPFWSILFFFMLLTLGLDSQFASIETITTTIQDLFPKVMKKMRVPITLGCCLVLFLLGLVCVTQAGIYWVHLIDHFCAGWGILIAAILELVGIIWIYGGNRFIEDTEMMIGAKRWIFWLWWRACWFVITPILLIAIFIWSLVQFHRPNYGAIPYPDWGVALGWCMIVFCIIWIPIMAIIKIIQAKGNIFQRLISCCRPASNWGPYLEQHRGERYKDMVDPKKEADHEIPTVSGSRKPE
Text: FIGS. 3A and 3B. Natactivation kinetics of SLC6A14-mediated transport of leucine (FIG. 3A) and arginine and glutamine (FIG. 3B). Human SLC6A14 was expressed heterologously in X. laevis oocytes by microinjection of cRNA. Four days following injection, oocytes were used for electrophysiological studies using the two-microelectrode voltage-clamp method. […] Since the expression levels varied from oocyte to oocyte resulting in varying magnitudes of amino acid-induced currents, the currents were normalized by taking the magnitude of the currents induced at 100 mM Na^+ as 1 in each oocyte and calculating the magnitude of the currents induced at other concentrations of Na^+ as a fraction of this maximal current. The experiments were done with three different oocytes and the results are given as means±SE. Insets, Hill plots.
FIG. 4. Cl^−-activation kinetics of SLC6A14-mediated transport of leucine, arginine, and glutamine. […] The experiments were done with three different oocytes and the results are given as means±SE.
FIGS. 5A to 5C. Blockade of SLC6A14-mediated transport of leucine (FIG. 5A), glutamine (FIG. 5B), and arginine (FIG. 5C) by α-MT. Oocytes injected with human SLC6A14 cRNA were perifused with 100 µM leucine, 100 μM glutamine, or 100 μM arginine under varying experimental conditions as indicated.
Analysis of SLC6A14 transport function in X. laevis oocytes. SLC6A14-mediated transport of leucine, glutamine, and arginine and its blockade by α-MT were studied using the X. laevis oocyte heterologous expression system as described previously (Hatanaka et al., 2001, J Clin Invest; 107:1035-1043; and Karunakaran et al., 2008, Biochem J; 414:343-355). Human cloned SLC6A14 cDNA was used in these studies.

SMILES: Cn1cnc(N)c2ncnc1-2 [3-MA, 3-methyladenine, reference compound]
- inhibition of α-MT-induced proteolysis of 14C-labeled proteins ([1]; MCF7, cotreatment 3-MA 10 mM with α-MT 2.5 mM): inhibited significantly
- block of autophagy induced by α-MT ([1]; MCF7 transfected with GFP-LC3, 3-MA 10 mM plus α-MT 2.5 mM): > 90%
- effect on cell death [2]: very little, if any, effect
- effect on cell death [3]: very little, if any, effect
- apoptotic cell death by annexin V labeling ([4]; MCF7, 3-MA 10 mM combined with α-MT 2.5 mM, compared with either agent alone): much greater
- apoptotic cell death by annexin V labeling ([4]; MCF7, single agent (α-MT 2.5 mM or 3-MA 10 mM)): significant apoptosis

SMILES: N=C(N)NCCC[C@H](N)C(=O)O [arginine]
- Hill coefficient of Na+-activation kinetics (number of Na+ involved in the activation process) [5]: 2.1
- inward currents on perifusion of SLC6A14-expressing oocytes [5]: induced inward currents

SMILES: NC(=O)CC[C@H](N)C(=O)O [glutamine]
- Hill coefficient of Na+-activation kinetics (number of Na+ involved in the activation process) [5]: 2.4
- inward currents on perifusion of SLC6A14-expressing oocytes [5]: induced inward currents

SMILES: CC(C)C[C@H](N)C(=O)O [leucine]
- Hill coefficient of Na+-activation kinetics (number of Na+ involved in the activation process) [5]: 2.2
- inward currents on perifusion of SLC6A14-expressing oocytes [5]: induced inward currents
